From patent publication US6489137B2, “Detection of loss of the wild-type huBUB1 gene” (Chiron Corporation, priority 1997, dated 2002) come the findings set out here.

The test addresses T1, huBUB1 kinase (Homo sapiens, UniProt O43683).
T1 construct: Plasmid p385-1, encoding full-length huBUB1 in the vector pCR3.1 (Invitrogen), was employed as a backbone for further constructs; made in house; host or cells: cell-free coupled in vitro transcription/translation (T7 TnT kit, Promega) from pCR3.1 plasmids, anti-FLAG immunopurified
Briefly: in vitro huBUB1 kinase (autophosphorylation) assay. Type of test: biochemical. The conditions noted are these: for relative huBUB1 autophosphorylation: immunopurified FLAG-BUB3/BUB1, labeled-ATP kinase reaction, SDS-PAGE, phosphorimager; for inhibition of huBUB1 kinase (result in words): tested at 5, 10 and 20 μM. An excerpt: A set of known compounds was screened using an in vitro huBUB1 kinase assay. Tested compounds included olomucine, myrecetin, hypericin, iodotubercidin, ellagic acid, emodin, and staurosporine. The relative specificity of these compounds towards known kinases has been reported in the literature. Some of these compounds can be classified as relatively specific kinase inhibitors (e.g., olomucine, myrecetin, ellagic acid), while other inhibitors are known to inhibit a broad range of kinase (e.g., hypericin, iodotubercidin, staurosporine).
Unlabeled FLAG-BUB3/BUB1 in vitro translation products were immunopurified with anti-FLAG. […] kinase reactions were performed in the presence and absence of inhibitors in 20 μl reaction volumes. Labeled reaction products were separated on SDS-PAGE gels, and relative huBUB1 autophosphorylation was determined with the aid of a phosphorimager. An initial screen was conducted using 10 and 20 μM of each compound. Compounds with a positive result in this screen were then retested at 5, 10 and 20 μM (Table 1).

T1 sequence (O43683 whole entry): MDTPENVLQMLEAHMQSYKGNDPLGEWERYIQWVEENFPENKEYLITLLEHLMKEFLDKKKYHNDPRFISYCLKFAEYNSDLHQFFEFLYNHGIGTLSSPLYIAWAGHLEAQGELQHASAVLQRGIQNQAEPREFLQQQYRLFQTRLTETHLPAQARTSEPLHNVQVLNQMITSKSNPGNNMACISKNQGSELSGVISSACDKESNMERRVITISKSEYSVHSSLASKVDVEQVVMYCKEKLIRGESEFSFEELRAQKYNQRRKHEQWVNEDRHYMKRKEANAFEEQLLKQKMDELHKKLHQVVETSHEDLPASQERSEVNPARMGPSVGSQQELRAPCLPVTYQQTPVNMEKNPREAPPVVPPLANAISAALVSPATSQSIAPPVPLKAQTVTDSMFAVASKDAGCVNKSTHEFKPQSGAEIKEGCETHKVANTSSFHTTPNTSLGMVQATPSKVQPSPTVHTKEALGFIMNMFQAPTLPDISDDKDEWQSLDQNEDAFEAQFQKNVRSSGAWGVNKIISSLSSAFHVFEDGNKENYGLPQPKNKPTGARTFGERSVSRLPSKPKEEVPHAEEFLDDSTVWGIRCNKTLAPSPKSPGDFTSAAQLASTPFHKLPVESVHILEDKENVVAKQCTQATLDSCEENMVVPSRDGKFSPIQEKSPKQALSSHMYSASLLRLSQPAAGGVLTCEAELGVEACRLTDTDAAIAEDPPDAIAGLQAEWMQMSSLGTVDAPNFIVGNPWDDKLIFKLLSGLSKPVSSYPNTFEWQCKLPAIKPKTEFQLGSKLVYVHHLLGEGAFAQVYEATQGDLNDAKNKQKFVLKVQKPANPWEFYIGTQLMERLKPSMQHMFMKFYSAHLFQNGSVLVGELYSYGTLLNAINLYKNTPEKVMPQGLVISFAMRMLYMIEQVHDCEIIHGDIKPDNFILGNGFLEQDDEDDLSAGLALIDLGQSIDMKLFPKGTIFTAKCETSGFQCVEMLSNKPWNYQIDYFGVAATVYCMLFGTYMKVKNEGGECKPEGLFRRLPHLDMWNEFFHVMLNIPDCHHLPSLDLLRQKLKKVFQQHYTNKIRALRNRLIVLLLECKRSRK
T1 sequence (O43684 whole entry partner): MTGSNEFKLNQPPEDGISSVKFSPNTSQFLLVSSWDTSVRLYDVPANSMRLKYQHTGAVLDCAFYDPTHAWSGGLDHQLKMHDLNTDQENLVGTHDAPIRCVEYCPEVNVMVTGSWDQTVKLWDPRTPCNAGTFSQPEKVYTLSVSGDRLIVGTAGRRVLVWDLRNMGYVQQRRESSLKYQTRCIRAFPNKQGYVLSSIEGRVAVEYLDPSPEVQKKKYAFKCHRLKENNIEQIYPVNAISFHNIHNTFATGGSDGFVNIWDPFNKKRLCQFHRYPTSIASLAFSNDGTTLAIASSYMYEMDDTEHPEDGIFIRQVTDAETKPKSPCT

For the compound `Cc1cc(O)c2c(=O)c3c(O)cc(O)c4c5c(O)cc(O)c6c(=O)c7c(O)cc(C)c8c1c2c(c34)c(c78)c65` [hypericin], the “relative huBUB1 autophosphorylation” value reads like this: (5 μM compound) 0.63 +/− 0.07; (10 μM compound) 0.47 +/− 0.13; (20 μM compound) 0.36 +/− 0.05.

In the case of `Nc1ncnc2c1c(I)cn2[C@@H]1O[C@H](CO)[C@@H](O)[C@H]1O` [iodotubercidin], the “inhibition of huBUB1 kinase (result in words)” value is “clearly inhibited”. The “relative huBUB1 autophosphorylation” value (5 μM compound) is 0.56 +/− 0.08. Moreover, the “relative huBUB1 autophosphorylation” value (10 μM compound) is reported as 0.41 +/− 0.09. Moreover, the “relative huBUB1 autophosphorylation” value (20 μM compound) is 0.32 +/− 0.05.

`CN[C@@H]1C[C@H]2O[C@@](C)([C@@H]1OC)n1c3ccccc3c3c4c(c5c6ccccc6n2c5c31)C(=O)NC4` [staurosporine]: the “inhibition of huBUB1 kinase (result in words)” value is listed as “clearly inhibited”. Moreover, the “relative huBUB1 autophosphorylation” value (5 μM compound) was 0.45 +/− 0.11. Besides, the “relative huBUB1 autophosphorylation” value (10 μM compound) is listed as 0.49 +/− 0.11. For the same compound, the “relative huBUB1 autophosphorylation” value (20 μM compound) is listed as 0.26 +/− 0.04.
